# Where two headings read alike, the source gives them in different places.
# Assays:
# [1] = tested on: viable cells of fecal suspension
# ethanol treated spores = test: Germination of ethanol treated spores with germinants, CFU on plate media; conditions: 2 ug/ml; plated on Sweet B or M2GSC media, single donor, FIG. 9
# [2] = tested on: M. morganii and P. pennerii isolates; test: microbe, parasite or virus in culture; type: cell-based
molecule,measurement,setting,value
"CCO [Ethanol, ethanol]",reduction of the number of viable cells,[1],approximately 4 logs
lysozyme,"effect of addition to the plates on CFU, in words",ethanol treated spores,small effect
C[C@@H](O)[C@H]1C(=O)N2C(C(=O)O)=C(SCCN=CN)C[C@H]12 [imipenem],MIC,[2],4 to 8 µg/mL
same,MIC,[2]; Morganella morganii,2 to 4 µg/mL

# From US20160040215A1, “Methods for Pathogen Detection and Enrichment from Materials and Compositions” (priority 2013, published 2016)
